Data as given in US20200237852A1, “Small Molecule Enhancers of Paneth Cell Function and Differentiation” (Massachusetts Institute of Technology, priority 2019, published 2020).

Experiments:
Type in all cases: cell-based, C57BL/6 mice
[1] = tested on: ISC-enriched organoids in ENR+CD; assay: 384-well secondary screen in ENR+CD incl. early vs. full treatment, secreted LYZ (LYZ.NS, LYZ.S); settings: 6-day ENR+CD+treatment vs ENR+CD+DMSO; cutoff 0.89, 8 replicates
[2] = tested on: conventional organoid (ENR); assay: 384-well screen in conventional organoid (ENR), secreted LYZ (LYZ.NS, LYZ.S); settings: 6-day ENR differentiation compared with ENR+CD
ENR+CD organoids = assay: Flow cytometry analysis, 3D culture, XPO1 inhibitors; settings: 6-day ENR+CD organoids
Protocol: ISC-enriched organoids cultured in 3D Matrigel with ENRCV media were passaged to 24-well plate in 3D Matrigel with ENRCV. At day zero, media were replaced to ENRCD with or without indicated compounds, and media were replaced every other day. At day six, cells were washed with basal media, and then harvested from Matrigel by mechanical disruption in TrypLE Express (ThermoFisher, 12605010) to remove Matrigel and dissociate organoids to single cells. After vigorous pipetting and incubation at 37° C. for 20 min, dissociated organoids were strained through a 35 μm cell strainer into a tube (Falcon, 352235). The cell filtrate was centrifuged again at 300×g for 3 min at 4° C. to pellet the cells. Cell pellets were resuspended in FACS buffer (2% FBS in PBS), and then transferred to an ultra low-bind 96-well plate (Corning, 7007). Cells were stained with Zombie-violet viability dye (BioLegend, 423107) at 100× for viability staining and/or antibody staining solution. FITC-conjugated antibody for lysozyme (Dako, […]) and APC-conjugated antibody for CD24 (BioLegend, 138505) were used at 100× dilution. Flow cytometry was performed using an LSR Fortessa (BD; Koch Institute Flow Cytometry Core at MIT). The data were analyzed using FlowJo v10 software.

SMILES: O=C(/C=C\n1cnc(-c2cc(C(F)(F)F)cc(C(F)(F)F)c2)n1)NNc1cnccn1 [KPT-330]
- validation in secondary screen (SSMD above cutoff for both LYZ.NS and LYZ.S) [1]: multiple validated doses
- mean fold change in LYZ.NS/ATP and LYZ.S/ATP (LYZ secretion per cell) in ENR [2]: reasonable increases in LYZ secretion per cell in ENR
- Paneth cell representation by flow cytometry (ENR+CD organoids): statistically significant increases in Paneth cell representation
